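Following 48 hours of exposure in 96-well plates, responses at five concentrations were used to interpolate endpoints linearly. TGI: concentration producing complete growth inhibition.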

Test systems include 786-0 renal; BT-549 breast; DU-145 prostate; HCT-15 colon; HOP-92 NSCLC; MCF7 breast; MDA-MB-231 breast; MDA-N; MOLT-4 leukemia; SF-295 CNS; K-562 leukemia.
Common to all, as to experiment: growth of human tumour cells (NCI), 48 h

For `O=C1NC(NNc2ccccc2)=N/C1=C\c1ccco1`, the TGI in the experiment with 786-0 renal is 40.2 µM; in the experiment on BT-549 breast it was 50.7 µM; in the experiment on DU-145 prostate, 42.9 µM; with HCT-15 colon, 33 µM; with HOP-92 NSCLC, 30.6 µM; in the experiment with MCF7 breast, 34 µM. In addition, the TGI in the experiment on MDA-MB-231 breast is 54.7 µM; in the experiment on MDA-N, above 100 µM; in the experiment with MOLT-4 leukemia it was above 100 µM; in the experiment on SF-295 CNS it was above 100 µM.
For `CC(=O)c1ccc(Nc2nc3ccccc3c3occc23)cc1`, the TGI with 786-0 renal is 21.7 µM; in the experiment with BT-549 breast it was 64.4 µM; with DU-145 prostate, 75 µM; with HCT-15 colon, 33.8 µM; in the experiment with HOP-92 NSCLC, 49.8 µM; with MCF7 breast, 56.6 µM. Also, the TGI was above 100 µM in the experiment on MDA-MB-231 breast, 47.7 µM with MDA-N, 11.9 µM with MOLT-4 leukemia and 41.1 µM in the experiment on SF-295 CNS.
As for `COc1cc2c(cc1OC)-c1cc3cc(OC)c(OC)cc3c(C)[n+]1CC2` (tested in a mixture with another compound), the TGI in the experiment with 786-0 renal, in the experiment with BT-549 breast, with DU-145 prostate, in the experiment on HCT-15 colon, with HOP-92 NSCLC and with MCF7 breast was above 100 µM each time. Further, the TGI is above 100 µM with MDA-MB-231 breast, above 100 µM in the experiment on MDA-N, 48.1 µM in the experiment with MOLT-4 leukemia and above 100 µM in the experiment with SF-295 CNS.
In the case of `CCOC(=O)NC(C(F)(F)F)(C(F)(F)F)P(=O)(OCC)OCC`, the TGI with 786-0 renal, with BT-549 breast, in the experiment with DU-145 prostate, in the experiment with HCT-15 colon, in the experiment on HOP-92 NSCLC and in the experiment with K-562 leukemia was above 100 µM each time. Also, the TGI in the experiment with MCF7 breast was above 100 µM; in the experiment with MDA-MB-231 breast, above 100 µM; in the experiment with MDA-N, above 100 µM; with MOLT-4 leukemia, 97.9 µM; in the experiment with SF-295 CNS, above 100 µM.
With `Cc1ccc(C(CCO)CCO)nc1`, the TGI in the experiment with 786-0 renal, in the experiment on BT-549 breast, in the experiment with DU-145 prostate, with HCT-15 colon, in the experiment on HOP-92 NSCLC and in the experiment with MCF7 breast was above 100 µM throughout. The TGI with MDA-MB-231 breast, with MDA-N, in the experiment on MOLT-4 leukemia and with SF-295 CNS was above 100 µM each time.
For the compound `CCCCCCc1cc2cc(-c3cn4ccccc4n3)c(=O)oc2cc1O`, the TGI in the experiment on 786-0 renal is 4.76 µM; in the experiment on BT-549 breast, 22.1 µM; in the experiment with DU-145 prostate, 19.3 µM; in the experiment on HCT-15 colon, 20.9 µM; in the experiment with HOP-92 NSCLC it was 32.6 µM; with K-562 leukemia, above 40.3 µM. The TGI in the experiment on MCF7 breast was 17.5 µM; in the experiment with MDA-MB-231 breast, 9.7 µM; with MDA-N, 18.9 µM; with MOLT-4 leukemia, above 63.3 µM; with SF-295 CNS, 34.1 µM.
Take `C[N+]1(C)C/C(=C\C=C\c2ccccc2)C(=O)/C(=C/C=C/c2ccccc2)C1`: the TGI in the experiment with 786-0 renal is 55.3 µM; with BT-549 breast, 8.39 µM; in the experiment with DU-145 prostate, 37.2 µM; in the experiment with HCT-15 colon it was above 100 µM; with HOP-92 NSCLC, 70.3 µM; in the experiment with K-562 leukemia it was 36 µM. Further, the TGI with MCF7 breast was found to be 38.4 µM; with MDA-MB-231 breast, 36.1 µM; with MDA-N, 11.1 µM; in the experiment with MOLT-4 leukemia it was 16.6 µM; with SF-295 CNS, 81.7 µM.
Regarding `O=C(NCCCN1CCN(CCCNC(=O)c2cc(-c3ccccc3)nc3ccccc23)CC1)c1cc(-c2ccccc2)nc2ccccc12`, the TGI was 21.5 µM with 786-0 renal; 51.1 µM with BT-549 breast; above 67.1 µM in the experiment on DU-145 prostate; above 100 µM in the experiment on HCT-15 colon; 28.5 µM in the experiment on HOP-92 NSCLC; 34.2 µM in the experiment with K-562 leukemia. Further, the TGI in the experiment with MCF7 breast is 53.5 µM; in the experiment on MDA-MB-231 breast, above 62.6 µM; in the experiment on MDA-N it was 20.4 µM; in the experiment with MOLT-4 leukemia, above 66.1 µM; in the experiment with SF-295 CNS, 31.6 µM.
As for `Cn1c2ccccc2c(=NNc2ccc(S(=O)(=O)N=C(N)N)cc2)c2ccccc21`, the TGI with 786-0 renal was found to be 19.2 µM; with BT-549 breast, 29.1 µM; in the experiment with DU-145 prostate, 32.3 µM; in the experiment on HCT-15 colon, 36.7 µM; in the experiment with HOP-92 NSCLC, 36.4 µM; with K-562 leukemia it was 18 µM. The TGI in the experiment with MCF7 breast amounted to 12.9 µM; in the experiment with MDA-MB-231 breast, 32.4 µM; in the experiment with MDA-N it was 25.1 µM; with MOLT-4 leukemia, 13.4 µM; in the experiment with SF-295 CNS, 31.1 µM.
For `CC(C)(C)c1cc(OCc2n[nH]c(=S)n2N)c(Cl)cc1OCc1n[nH]c(=S)n1N`, the TGI in the experiment on 786-0 renal, with BT-549 breast, in the experiment with DU-145 prostate, with HCT-15 colon, in the experiment with HOP-92 NSCLC and in the experiment with K-562 leukemia was above 100 µM throughout. The TGI with MCF7 breast, in the experiment with MDA-MB-231 breast, in the experiment on MDA-N, in the experiment on MOLT-4 leukemia and with SF-295 CNS was above 100 µM each time.
For the compound `CC(C)(Cl)C(Cl)CC/C(CBr)=C(\Cl)CBr` (configuration not stated), the TGI in the experiment on 786-0 renal was 2.68 µM; with BT-549 breast, 3.27 µM; with DU-145 prostate, 20.1 µM; in the experiment with HCT-15 colon, 3.51 µM; in the experiment on HOP-92 NSCLC, 3.63 µM; with MCF7 breast it was 6.97 µM. The TGI with MDA-MB-231 breast is 4.42 µM; with MDA-N it was 3.65 µM; in the experiment with MOLT-4 leukemia it was 2.32 µM; with SF-295 CNS, 16 µM.
In the case of `CCOC(=O)c1c(Br)c(-c2ccc([N+](=O)[O-])cc2)c(Br)n1C`, the TGI with 786-0 renal, in the experiment with BT-549 breast, in the experiment with DU-145 prostate, in the experiment on HCT-15 colon, in the experiment with HOP-92 NSCLC and in the experiment on K-562 leukemia was above 10 µM throughout. The TGI in the experiment on MCF7 breast, in the experiment with MDA-MB-231 breast, with MDA-N, in the experiment on MOLT-4 leukemia and in the experiment with SF-295 CNS was above 10 µM each time.
On to `O=c1[nH]nc(-c2ccccc2)n1-n1cccc1`, for which the TGI in the experiment with 786-0 renal, in the experiment with BT-549 breast, with DU-145 prostate, in the experiment on HCT-15 colon, with K-562 leukemia and in the experiment with MCF7 breast was above 100 µM in each case. Also, the TGI with MDA-MB-231 breast, with MDA-N, with MOLT-4 leukemia and in the experiment on SF-295 CNS was above 100 µM each time.
In the case of `CC(Cn1c(=O)oc2ccccc21)N(C)C` (configuration not stated), the TGI in the experiment with 786-0 renal, in the experiment on BT-549 breast, with DU-145 prostate, with HCT-15 colon, in the experiment on K-562 leukemia and with MCF7 breast was above 100 µM throughout. Further, the TGI with MDA-MB-231 breast, in the experiment on MDA-N, in the experiment with MOLT-4 leukemia and with SF-295 CNS was above 100 µM in each case.
`COc1c(-c2ccc(F)cc2)oc2c(CC(=O)O)cccc2c1=O`: the TGI in the experiment on 786-0 renal, in the experiment on BT-549 breast, in the experiment on DU-145 prostate, with K-562 leukemia, in the experiment with MCF7 breast and with MDA-MB-231 breast was above 100 µM in each case. Moreover, the TGI in the experiment with MDA-N, in the experiment with MOLT-4 leukemia and in the experiment on SF-295 CNS was above 100 µM throughout.
Consider `Cc1c2c(n3c(nc4ccccc43)c1C#N)NCC2`, for which the TGI in the experiment on 786-0 renal, in the experiment on BT-549 breast, in the experiment with DU-145 prostate, in the experiment with HCT-15 colon, with HOP-92 NSCLC and with K-562 leukemia was above 10 µM in each case. Besides, the TGI in the experiment on MCF7 breast, with MDA-MB-231 breast, in the experiment on MDA-N, in the experiment with MOLT-4 leukemia and in the experiment on SF-295 CNS was above 10 µM throughout.
Consider `COC(=O)N1C2C(C[C@@]1(C)C(=O)OC)c1ccccc1N2S(=O)(=O)c1ccccc1` (some centres not stated), for which the TGI in the experiment on 786-0 renal, with BT-549 breast, with DU-145 prostate, with HOP-92 NSCLC, with K-562 leukemia and with MCF7 breast was above 100 µM throughout. The TGI in the experiment on MDA-MB-231 breast, in the experiment with MDA-N, in the experiment with MOLT-4 leukemia and with SF-295 CNS was above 100 µM in each case.
For `CCOC(OCC)[C@@H]1C[C@@H]2N(O[C@H](OC3CCCC3(c3ccccc3)c3ccccc3)[C@H](OC(C)=O)[C@@]2(CC)Cc2ccc(OC)c(OC)c2)O1` (some centres not stated), the TGI in the experiment on 786-0 renal, with BT-549 breast, with DU-145 prostate, with HCT-15 colon, with K-562 leukemia and in the experiment on MCF7 breast was above 100 µM in each case. The TGI in the experiment with MDA-MB-231 breast, with MDA-N, in the experiment with MOLT-4 leukemia and with SF-295 CNS was above 100 µM throughout.
For the compound `COC1=C(OC)C(=O)C(C/C=C/c2c(Cl)nc3sccn23)=C(C)C1=O`, the TGI is 49.2 µM in the experiment on 786-0 renal; 28.8 µM with BT-549 breast; 40.3 µM in the experiment on DU-145 prostate; above 100 µM in the experiment on HCT-15 colon; 68.3 µM in the experiment on K-562 leukemia; 52.8 µM in the experiment on MCF7 breast. In addition, the TGI with MDA-MB-231 breast turned out to be 25.3 µM; in the experiment with MDA-N, 19.8 µM; in the experiment on MOLT-4 leukemia, 8.97 µM; with SF-295 CNS, 21 µM.

The record behind these values is PubChem BioAssay (NCI).
